This data set in a line: Human HepG2 cell viability assay in 384 well format. It counts as toxicity, cell-based. Details: dose 125 nL, time 70.5 hour; cytotoxicity at 70.5 h: concentration not given beside the values. As to conditions: HepG2 cells, read-out: Inhibition.
Take `O=C(NCc1cccs1)C1CN(C(=O)c2cccs2)CC12CCOCC2` (stereo not drawn): the cytotoxicity at 70.5 h is -8.67%.

In the case of `COc1cccc(S(=O)(=O)N2CCn3cnc(COCC4CC4)c3C2)c1`, the cytotoxicity at 70.5 h was -10%.

As to `CS(=O)(=O)CC(=O)N1C[C@@H]2COC[C@]2(c2nnc(C3CC3)o2)C1`, the cytotoxicity at 70.5 h amounted to 4.38%.

In the case of `O=C(NCc1cccnc1)C1=NOC2(CCN(S(=O)(=O)C3CC3)C2)C1` (stereo not drawn), the cytotoxicity at 70.5 h was -10.8%.

For the compound `CC(C)N(C)C(=O)C1=NOC2(CCN(C(=O)c3ccc(Cl)cc3)C2)C1` (stereo not drawn), the cytotoxicity at 70.5 h is -0.00349%.

Consider `O=C1NC2(CCN(CC(=O)N3CCOCC3)CC2)Nc2ccc(Br)cc21`, for which the cytotoxicity at 70.5 h is -2.15%.

For the compound `Cc1nn(C)cc1CN1CCCC(n2c(=O)oc3ccccc32)C1` (stereo not drawn), the cytotoxicity at 70.5 h is 0.702%.

On to `CSc1ncc(C(=O)NCCn2nccc2C)cn1`, for which the cytotoxicity at 70.5 h is -2.28%.

On to `CC(C)c1ncc(CN2CCC(O)(c3ccccc3F)CC2)cn1`, for which the cytotoxicity at 70.5 h was determined as 2.86%.

In the case of `COCCC(=O)N1CCC2(CC1)CN(S(C)(=O)=O)Cc1ccccc1O2`, the cytotoxicity at 70.5 h was -2.27%.

As for `CCc1ncc(CN2CCC(O)(c3ccccc3F)CC2)cn1`, the cytotoxicity at 70.5 h was -4.61%.

As for `Cc1ncc(CN2CCC(O)(c3ccccc3F)CC2)cn1`, the cytotoxicity at 70.5 h was -0.616%.

As for `Cn1ncc(Cl)c1C(=O)N1CCC(c2nnsc2S(C)(=O)=O)CC1`, the cytotoxicity at 70.5 h amounted to 7.94%.

Regarding `COc1cc2c(cc1CCC(=O)O)CCC2`, the cytotoxicity at 70.5 h was found to be 17.1%.

For `CCN(CC)S(=O)(=O)c1cc2c3c(c1)c(C)cc(=O)n3CC2`, the cytotoxicity at 70.5 h is 3.57%.

For the compound `Cc1cccnc1C(Cc1ccsc1)NCc1cnc(N(C)C)nc1` (stereo not drawn), the cytotoxicity at 70.5 h is -8.31%.

In the case of `COc1ccc(C(=O)N2CCOCC2c2[nH]ncc2C)cc1F` (stereo not drawn), the cytotoxicity at 70.5 h is -3.4%.

Turning to `CO[C@@H]1CCC[C@@H](NC(=O)CCCn2cncn2)[C@H]1O`, the cytotoxicity at 70.5 h is -1.73%.

`CCCn1nc(C)c(C(=O)N[C@@H]2CC[C@@H](N3CCCC3)[C@@H]2O)c1C`: the cytotoxicity at 70.5 h is -6.2%.

As for `Cc1nccn1[C@@H]1CC[C@@H](NC(=O)CCCn2cncn2)[C@H]1O`, the cytotoxicity at 70.5 h stood at 16.1%.

Take `O=C(O)CCCC(=O)NCC1(O)CCN(c2ccnc3cccnc23)C1` (stereo not drawn): the cytotoxicity at 70.5 h was determined as 1.69%.

Consider `CSCC[C@@H]1CN2CCC[C@H]2CN1Cc1coc2ccc(C)cc2c1=O`, for which the cytotoxicity at 70.5 h was -1.62%.

Consider `CC(C)(C)c1ccc(OCC(N)=O)c(CN2C[C@H]3C[C@H](O)C[C@H]3C2)c1`, for which the cytotoxicity at 70.5 h is -7.47%.

As to `Cc1ccc(CN2CCOC(c3cnccn3)C2)s1` (stereo not drawn), the cytotoxicity at 70.5 h was -5.54%.

`COc1ccc2c(c1)C(=O)NC1(CC2)CCN(Cc2ccccc2)C1` (stereo not drawn): the cytotoxicity at 70.5 h was -3.55%.

On to `CCOc1ccc(CN2CCC(c3nc(C)cc(C)n3)C2)cc1CO` (stereo not drawn), for which the cytotoxicity at 70.5 h turned out to be 2.12%.

Consider `O=C(O)C1CN(c2cncc(Cc3ccccc3)n2)C1`, for which the cytotoxicity at 70.5 h is -3.73%.

Turning to `CN1CCC(c2n[nH]cc2-c2ccnc(N)c2)C1` (stereo not drawn), the cytotoxicity at 70.5 h worked out at 0.193%.

As for `CC(C)N1CCC(c2n[nH]cc2-c2ccnc(N)c2)C1` (stereo not drawn), the cytotoxicity at 70.5 h was found to be 2.17%.

On to `O=C(N1CCCC1)C1(Cc2ccc(-c3cccs3)cc2)CCNC1` (stereo not drawn), for which the cytotoxicity at 70.5 h was found to be 2.43%.

Take `Cc1nc(C2CCNC2)nc2c1CCC(=O)N2C` (stereo not drawn): the cytotoxicity at 70.5 h is -4.12%.

With `O=C(NCc1cncc2c1CCN(Cc1cccc(F)c1)C2)C1CC1`, the cytotoxicity at 70.5 h was -1.35%.

For the compound `Cc1nc(N2CCCC2)nc2c1CCN(Cc1ccco1)CC2`, the cytotoxicity at 70.5 h was -16.4%.

As for `O=C(c1cscn1)N1C[C@H]2CCCC(OCc3cccnc3)[C@H]2C1` (stereo partly drawn), the cytotoxicity at 70.5 h was -11.5%.

`COCC(=O)N1CCC(c2nc3ccc(N4CCCC4)cn3n2)CC1`: the cytotoxicity at 70.5 h was -5.18%.

On to `Cc1ccc(CN2CCc3ncc(CNS(C)(=O)=O)n3CC2)o1`, for which the cytotoxicity at 70.5 h is -12.4%.

In the case of `Cc1cccc(CO[C@@H]2CC[C@H]3[C@H]2OCCN3Cc2ccsc2)n1`, the cytotoxicity at 70.5 h was -12.2%.

Regarding `COc1nc2cc(C)ccc2cc1CN(C)Cc1cc(C)[nH]n1`, the cytotoxicity at 70.5 h was -6.96%.

The record behind these values is ChEMBL document CHEMBL3507680, “University of Dundee, Gates Library screen for HepG2 cell viability”.
